# In US7709645B2, “Pyrrolo-pyridine kinase modulators” (SGX Pharmaceuticals, Inc., priority 2004, dated 2010):
# Target: T1, MET kinase (Homo sapiens, UniProt P08581)
# T1 construct: Sf9 insect cell culture expressing the kinase domain of human Met; 6x Histidine tag (TEV-cleavable) (cleaved yes); made in house; host or cells: Sf9 insect cells
# Assay: Met Bioassay (luminescence-based enzyme assay, Kinase-Glo)
# Format: biochemical
# Details: 10 μM ATP
# Excerpt: In addition to the c-Abl PK/LDH coupled assay (above), homogeneous luminescence-based inhibitor screening assays were developed for c-Abl, MET, AurA, and PDK1 kinases (among others). Each of these assays made use of an ATP depletion assay (Kinase-Glo™, Promega Corporation, Madison, Wis.) to quantitate kinase activity. The Kinase-Glo™ format uses a thermostable luciferase to generate luminescent signal from ATP remaining in solution following the kinase reaction. The luminescent signal is inversely correlated with the amount of kinase activity.
# Materials: Poly Glu-Tyr (4:1) substrate (Sigma Cat# P-0275), ATP (Sigma Cat#A-3377, FW=551), HEPES buffer, pH 7.5, Bovine serum albumin (BSA) (Roche 92423420), MgCl2, Staurosporine (Streptomyces sp. Sigma Cat#85660-1MG), white Costar 384-well flat-bottom plate (VWR Cat#29444-088). MET kinase (see below), Kinase-Glo™ (Promega Cat#V6712).
# Stock Solutions: 10 mg/ml poly Glu-Tyr in water, stored at −20° C.; 100 mM HEPES buffer, pH 7.5 (5 ml 1M stock+45 ml miliQH2O); 10 mM ATP (5.51 mg/ml in dH2O) stored at −20° C. (diluted 50 μl into total of 10 ml miliQH2O daily=50 μM ATP working stock); 1% BSA (1 g BSA in 100 ml 0.1M HEPES, pH 7.5, stored at −20° C.), 100 mM MgCl2; 200 μM Staurosporine, 2× Kinase-Glo™ reagent (made fresh or stored at −20° C.).
# Standard Assay Setup for 384-well format (20 μl kinase reaction, 40 μl detection reaction): 10 mM MgCl2; 0.3 mg/ml poly Glu-Tyr; 0.1% BSA; 1 μl test compound (in DMSO); 0.4 μg/ml MET kinase; 10 μM ATP; 100 mM HEPES buffer. Positive controls contained DMSO with no test compound. Negative controls contained 10 μM staurosporine. The kinase reactions were initiated at time t=0 by the addition of ATP. Kinase reactions were incubated at 21° C. for 60 min, then 20 μl of Kinase-Glo™ reagent were added to each well to quench the kinase reaction and initiate the luminescence reaction. After a 20 min incubation at 21° C., the luminescence was detected in a plate-reading luminometer.
# The cell pellets produced from half of a 12 L Sf9 insect cell culture expressing the kinase domain of human Met were resuspended in a buffer containing 50 mM Tris-HCl pH 7.7 and 250 mM NaCl, in a volume of approximately 40 ml per 1 L of original culture. One tablet of Roche Complete, EDTA-free protease inhibitor cocktail (Cat# 1873580) was added per 1 L of original culture. The suspension was stirred for 1 hour at 4° C. Debris was removed by centrifugation for 30 minutes at 39,800×g at 4° C. The supernatant was decanted into a 500 ml beaker and 10 ml of 50% slurry of Qiagen Ni-NTA Agarose (Cat# 30250) that had been pre-equilibrated in 50 mM Tris-HCl pH 7.8, 50 mM NaCl, 10% Glycerol, 10 mM Imidazole, and 10 mM Methionine, were added and stirred for 30 minutes at 4° C. The sample was then poured into a drip column at 4° C. and washed with 10 column volumes of 50 mM Tris-HCl pH 7.8, 500 mM NaCl, 10% Glycerol, 10 mM Imidazole, and 10 mM Methionine. The protein was eluted using a step gradient with two column volumes each of the same buffer containing 50 mM, 200 mM, and 500 mM Imidazole, sequentially. The 6× Histidine tag was cleaved overnight using 40 units of TEV protease (Invitrogen Cat#10127017) per 1 mg of protein while dialyzing in 50 mM Tris-HCl pH 7.8, 500 mM NaCl, 10% Glycerol, 10 mM Imidazole, and 10 mM Methionine at 4° C. The 6× Histidine tag was removed by passing the sample over a Pharmacia 5 ml IMAC column (Cat# 17-0409-01) charged with Nickel and equilibrated in 50 mM Tris-HCl pH 7.8, 500 mM NaCl, 10% Glycerol, 10 mM Imidazole, and 10 mM Methionine. The cleaved protein bound to the Nickel column at a low affinity and was eluted with a step gradient. The step gradient was run with 15% and then 80% of the B-side (A-side=50 mM Tris-HCl pH 7.8, 500 mM NaCl, 10% Glycerol, 10 mM Imidazole, and 10 mM Methionine; B-side=50 mM Tris-HCl pH 7.8, 500 mM NaCl, 10% Glycerol, 500 mM Imidazole, and 10 mM Methionine) for 4 column volumes each. […]
# T1 sequence (P08581 1078-1345 limits assumed): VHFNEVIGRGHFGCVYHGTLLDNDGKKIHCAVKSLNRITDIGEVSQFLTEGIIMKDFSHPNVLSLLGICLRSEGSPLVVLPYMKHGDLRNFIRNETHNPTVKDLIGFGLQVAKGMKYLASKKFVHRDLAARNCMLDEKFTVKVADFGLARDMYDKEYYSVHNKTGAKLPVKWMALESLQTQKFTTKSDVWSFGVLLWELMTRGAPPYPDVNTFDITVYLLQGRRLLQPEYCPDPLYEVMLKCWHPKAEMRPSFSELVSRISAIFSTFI
row,SMILES,IC50 [µM]
1,COc1ccccc1-c1c[nH]c2ncc(-c3ccc(CN(C)C)cc3)cc12 [AE8],< 1
2,O=C(c1cncc(-c2cnc3[nH]cc(-c4ccc5cc[nH]c5c4)c3c2)c1)N1CCOCC1 [AE14],< 1
3,COc1ccccc1-c1c[nH]c2ncc(-c3ccc(O)c(CN4CCCN(C)CC4)c3)cc12 [AE41],1 to 5
4,COc1ccccc1-c1c[nH]c2ncc(-c3cccc(C(=N)N4CCCCC4)c3)cc12 [AE42],< 1
5,Oc1cccc(-c2cnc3[nH]cc(-c4ccc(O)c(F)c4)c3c2)c1 [AE48],< 1
6,c1cc2cc(-c3c[nH]c4ncc(-c5ccc6[nH]cnc6c5)cc34)ccc2[nH]1 [AE22],1 to 5
7,COc1cc(-c2cnc3[nH]cc(-c4ccccc4OC)c3c2)ccc1OCCN1CCCC1 [AE65],1 to 5
8,COc1cc(-c2cnc3[nH]cc(-c4ccc(O)cc4)c3c2)ccc1O [AE58],1 to 5
